Among the data in ChEMBL document CHEMBL1201862, “PubChem BioAssay data set” (2004) are AC50, IC50 and EC50 values, retold here.

The source made the active and inactive calls.

Experiment [1] concerns the target DNA topoisomerase (Yersinia pestis, UniProt A0A2S9PM60). The experiment can be described thus: Y. pestis Topo-I inhibitors, cleavage product readout, dose response, biochemical, cherry-pick (AID 588525).
Experiment [2] relates to Candida albicans. Nature of the experiment: growth inhibition of resistant C. albicans, dose response, CaCi-8 strain, fluconazole, dry powder, set 4 (AID 488950). Type of experiment: functional, organism-based.
Experiment [3] deals with Candida albicans. The experiment can be described thus: C. albicans growth inhibition with fluconazole, dose response, antifungal resistance reversal project, CaCi-2 strain, Alamar Blue, dry powder, set 2 (AID 488930). Type of experiment: functional, organism-based. Background: Resazurin is reduced to fluorescent resorufin, in cell work by metabolically active cells.
Experiment [4] relates to Candida albicans. Nature of the experiment: fluconazole resistance reversal in C. albicans, dose response, CaCi-2 strain, Alamar Blue, dry powder, set 4 (AID 488943). Type of experiment: functional, organism-based.
In experiment [5] the test system is Candida albicans. The experiment can be described thus: growth inhibition of azole-resistant C. albicans, dose response, CaCi-8 strain, Alamar Blue, dry powder, set 2 (AID 488909). Type of experiment: functional, organism-based.
For experiment [6], the target named is Luciferin 4-monooxygenase (Photuris pensylvanica, UniProt Q27757). Nature of the experiment: firefly luciferase enzyme inhibitors, dose response, counter-screen for HSF-1 reporter inhibitor project, biochemical, Cell Titer Glo, luminescence, cherry-picks (AID 588847). In general terms: Counterscreens check selectivity or assay interference.
The target of experiment [7] is Glycogen synthase kinase-3 alpha (Homo sapiens, UniProt P49840). Nature of the experiment: Inhibition of Human GSK-3 alpha Activity Measured in Biochemical System Using Microfluidics - 2063-06_Inhibitor_Dose_DryPowder_Activity_Set2. [Related pubchem assays (depositor defined):AID2709].
Experiment [8] addresses Glycogen synthase kinase-3 beta (Homo sapiens, UniProt P49841). Nature of the experiment: Inhibition of Human GSK-3 beta Activity Measured in Biochemical System Using Microfluidics - 2063-05_Inhibitor_Dose_DryPowder_Activity_Set2. [Related pubchem assays (depositor defined):AID2709].
Experiment [9] has as its target Cyclin-dependent kinase 5/CDK5 activator 1 (Homo sapiens, UniProt Q00535). Nature of the experiment: CDK5-p25 kinase inhibitors, specificity check, dose response, selectivity assay for GSK-3 alpha inhibitor project, biochemical, microfluidic mobility shift, dry powder (AID 588430).
The test system of experiment [10] is CHO. The experiment can be described thus: cytotoxicity in TLR9-MyD88 CHO cells, dose response, cytotoxicity control for TLR9-MyD88 binding inhibitor project, cell-based, luminescence (AID 588339).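 Further: CHO cells stably coexpressing TLR9 and MyD88 fusions from primary screen; compound exposure lasted 48 hours before viability readout.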 Type of experiment: functional, hamster. The following applies: Cricetulus griseus.
Experiment [11] addresses T1, Endoribonuclease toxin MazF (Escherichia coli K-12, UniProt P0AE70). Nature of the experiment: MazF toxin RNase activators, dose response, biochemical, fluorescence, single-stranded RNA substrate, uHTS hits (AID 588481). Type of experiment: functional.
The target in experiment [12] is Beta Lactamase (Pseudomonas aeruginosa, UniProt Q932Y6). The experiment can be described thus: beta-lactamase reporter inhibitor potency, dose response, artefact control for TLR9-MyD88 binding inhibitor project, BLA reporter cells, FRET fluorescence (AID 588341).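 Further: cell based assay in CHO-K1 cells stably expressing beta-lactamase.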 Format: cell-based.
In experiment [13] the target is T1, Endoribonuclease toxin MazF. The experiment can be described thus: fluorescent RNA oligo signal without MazF, dose response, counter-screen for MazEF activator project, biochemical, fluorescence, single-stranded RNase substrate (AID 588502). Format: functional.
In experiment [14] the test system is CHO-K1. Nature of the experiment: Counterscreen for antagonists of the orexin 1 receptor (OX1R; HCRTR1): Homogeneous time resolved fluorescence (HTRF)-based cell-based dose response assay to identify antagonists of the parental CHO-K1 cell line. [Related pubchem assays (depositor defined):AID434989, AID435008, AID463079, AID485270, AID492963, AID492964, AID492965, AID493232, AID504699, AID504701]. Format: functional. The following applies: Cricetulus griseus.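 Further: potency for inhibition of ATP-stimulated IP1 production as antagonists.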

The nature of experiment [15]: Counterscreen for antagonists of the orexin 1 receptor (OX1R; HCRTR1): Fluorescence-based cell-based high throughput dose response assay to identify antagonists of the parental CHO cell line. [Related pubchem assays (depositor defined):AID434989, AID435008, AID463079, AID485270, AID492963, AID492964, AID492965, AID493232, AID504699, AID504701]. Format: functional.

The target of experiment [16] is T2, Orexin/Hypocretin receptor type 1 (Homo sapiens, UniProt O43613).
T2 sequence (O43613 whole entry): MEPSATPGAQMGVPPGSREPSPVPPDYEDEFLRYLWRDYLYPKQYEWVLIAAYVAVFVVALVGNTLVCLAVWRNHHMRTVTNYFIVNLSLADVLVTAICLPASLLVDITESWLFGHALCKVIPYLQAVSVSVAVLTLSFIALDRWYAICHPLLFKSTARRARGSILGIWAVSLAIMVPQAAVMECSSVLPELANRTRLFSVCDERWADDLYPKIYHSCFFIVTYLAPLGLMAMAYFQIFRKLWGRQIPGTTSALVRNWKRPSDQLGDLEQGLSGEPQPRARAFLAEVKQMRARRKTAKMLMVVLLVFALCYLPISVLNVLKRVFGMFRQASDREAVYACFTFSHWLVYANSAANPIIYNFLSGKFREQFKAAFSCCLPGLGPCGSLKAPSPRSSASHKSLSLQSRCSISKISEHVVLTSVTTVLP
Nature of the experiment: Homogeneous Time Resolved Fluorescence (HTRF)-based cell-based high throughput dose response assay for antagonists of the orexin 1 receptor (OX1R; HCRTR1). [Related pubchem assays (depositor defined):AID434989, AID435008, AID463079, AID485270, AID492963, AID492964, AID492965, AID493232, AID504717, AID504718]. Type of experiment: functional.

The target of experiment [17] is T2, Orexin/Hypocretin receptor type 1. Nature of the experiment: Fluorescence-based cell-based high throughput dose response assay for antagonists of the orexin 1 receptor (OX1R; HCRTR1). [Related pubchem assays (depositor defined):AID434989, AID435008, AID463079, AID485270, AID492963, AID492964, AID492965, AID493232, AID504717, AID504718]. Type of experiment: functional.

Experiment [18] deals with T3, Orexin receptor type 2 (Homo sapiens, UniProt O43614). The experiment can be described thus: Counterscreen assay for antagonists of the orexin 1 receptor (OX1R; HCRTR1): Fluorescence-based cell-based dose response assay for antagonists of the orexin 2 receptor (OX2R; HCRTR2), run by assay provider. Type of experiment: functional.
The target in experiment [19] is T3, Orexin receptor type 2. The experiment can be described thus: Counterscreen assay for antagonists of the orexin 1 receptor (OX1R; HCRTR1): Homogeneous Time Resolved Fluorescence (HTRF)-based cell-based dose response assay for antagonists of the orexin 2 receptor (OX2R; HCRTR2), run by assay provider. Format: functional.
Experiment [20] can be described thus: NIH-3T3 fibroblast cytotoxicity, dose response, cytotoxicity control, cell-based, fluorescence, Alamar Blue, secondary assay (AID 2327).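 Further: NIH-3T3 mouse fibroblasts cultured with fluconazole at 8 µg/mL.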 Type of experiment: functional.
A short description of experiment [21]: C. albicans growth with fluconazole, confirmation, fluorescence, retest (AID 2467). Type of experiment: functional, cell-based.
Experiment [22] addresses Large T antigen (Simian virus 40, UniProt P03070). Type of experiment: functional, Betapolyomavirus macacae.
In experiment [23] the target is Serine/threonine-protein phosphatase (Candida dubliniensis (strain CD36 / CBS 7987 / NCPF 3949 / NRRLY-17841) (Yeast), UniProt B9W6M3). Nature of the experiment: calcineurin pathway inhibitors in yeast reporter, dose response, S. cerevisiae, CDRE-lacZ, luminescence, secondary (AID 2388).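 Further: yeast reporter cells carrying a calcineurin-responsive lacZ construct stimulated with calcium chloride; luminescent beta-galactosidase reporter signal in whole cells rather than isolated phosphatase activity; potency for inhibition where a drop in reporter signal means calcineurin blockade.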 Format: functional, cell-based.
The target of experiment [24] is ATP-dependent molecular chaperone HSP82 (Candida albicans (strain WO-1) (Yeast), UniProt C4YTQ8). Nature of the experiment: loss of DOC-induced GRE-beta-galactosidase reporter signal, dose response, Hsp90 inhibitor project, S. cerevisiae, luminescence (AID 2400).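 Further: beta-galactosidase luminescence from glucocorticoid response element reporter as proxy for Hsp90 function; inhibitor potency where signal loss means Hsp90 inhibition.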 Format: functional, cell-based.
Experiment [25] relates to Jurkat. The experiment can be described thus: SAR Analysis of small molecule inhibitors of […] specific antigen receptor-induced NF-kB activation in a Jurkat cell line using a luminescence assay - Set 3. [Related pubchem assays (depositor defined):AID435022, AID435025, AID465]. Type of experiment: functional, cell-based. The following applies: Homo sapiens.
Experiment [26] concerns HEK293. Nature of the experiment: SAR Analysis of small molecule inhibitors of B-cell specific antigen receptor-induced NF-kB activation in a HEK-293T cell line using a luminescence assay - Set 2. [Related pubchem assays (depositor defined):AID435022, AID435025, AID489021]. Type of experiment: functional, cell-based. The conditions noted are these: Homo sapiens.
For experiment [27], the system named is HEK293. The experiment can be described thus: cytotoxicity in HEK293T NF-kB-Luc cells, SAR follow-up, cytotoxicity control for NF-kB activator project, cell-based, resazurin fluorescence (AID 493251). The conditions noted are these: Homo sapiens. Type of experiment: functional.

T1 sequence (P0AE70 whole entry): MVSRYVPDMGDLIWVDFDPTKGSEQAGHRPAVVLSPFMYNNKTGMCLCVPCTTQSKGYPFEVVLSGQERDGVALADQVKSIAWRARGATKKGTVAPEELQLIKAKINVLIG
T3 sequence (O43614 whole entry): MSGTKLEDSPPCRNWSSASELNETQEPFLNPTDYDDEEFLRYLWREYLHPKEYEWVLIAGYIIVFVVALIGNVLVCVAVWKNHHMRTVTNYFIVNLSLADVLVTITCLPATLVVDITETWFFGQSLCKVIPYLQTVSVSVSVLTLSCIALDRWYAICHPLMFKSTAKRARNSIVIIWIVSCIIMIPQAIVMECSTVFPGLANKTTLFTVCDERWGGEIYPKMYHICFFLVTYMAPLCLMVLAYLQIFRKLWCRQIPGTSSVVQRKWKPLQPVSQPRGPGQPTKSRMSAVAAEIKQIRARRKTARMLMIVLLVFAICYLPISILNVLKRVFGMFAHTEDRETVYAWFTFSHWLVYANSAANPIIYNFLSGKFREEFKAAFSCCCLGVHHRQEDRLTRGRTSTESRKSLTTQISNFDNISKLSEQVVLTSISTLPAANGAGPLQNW
Beta Lactamase, sequence (Q932Y6 whole entry): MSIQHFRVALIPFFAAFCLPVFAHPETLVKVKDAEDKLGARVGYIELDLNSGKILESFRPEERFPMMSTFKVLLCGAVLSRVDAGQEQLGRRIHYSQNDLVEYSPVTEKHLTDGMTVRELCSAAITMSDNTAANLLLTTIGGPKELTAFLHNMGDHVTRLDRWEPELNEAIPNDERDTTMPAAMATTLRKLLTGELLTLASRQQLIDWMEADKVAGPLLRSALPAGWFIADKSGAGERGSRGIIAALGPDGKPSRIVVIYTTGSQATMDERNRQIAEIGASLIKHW
Large T antigen, sequence (P03070 whole entry): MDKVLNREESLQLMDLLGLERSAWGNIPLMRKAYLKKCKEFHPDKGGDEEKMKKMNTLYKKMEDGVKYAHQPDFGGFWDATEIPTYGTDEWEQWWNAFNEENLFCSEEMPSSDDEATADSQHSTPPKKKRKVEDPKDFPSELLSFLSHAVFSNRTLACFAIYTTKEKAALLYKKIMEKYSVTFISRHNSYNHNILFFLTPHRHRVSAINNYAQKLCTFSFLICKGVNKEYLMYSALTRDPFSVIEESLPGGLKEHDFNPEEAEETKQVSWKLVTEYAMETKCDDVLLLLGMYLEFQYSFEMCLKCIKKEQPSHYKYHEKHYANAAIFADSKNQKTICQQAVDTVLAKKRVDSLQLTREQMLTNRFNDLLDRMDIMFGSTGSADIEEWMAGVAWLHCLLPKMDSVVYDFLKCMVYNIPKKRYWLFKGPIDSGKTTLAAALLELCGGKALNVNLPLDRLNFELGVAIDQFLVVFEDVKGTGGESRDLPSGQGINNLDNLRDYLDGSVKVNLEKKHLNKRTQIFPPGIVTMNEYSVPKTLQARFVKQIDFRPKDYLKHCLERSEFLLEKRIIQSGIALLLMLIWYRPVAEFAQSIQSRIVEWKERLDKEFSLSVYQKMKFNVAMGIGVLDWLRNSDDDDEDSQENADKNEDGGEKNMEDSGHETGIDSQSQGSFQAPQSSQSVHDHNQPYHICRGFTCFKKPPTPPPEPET
Serine/threonine-protein phosphatase, sequence (B9W6M3 whole entry): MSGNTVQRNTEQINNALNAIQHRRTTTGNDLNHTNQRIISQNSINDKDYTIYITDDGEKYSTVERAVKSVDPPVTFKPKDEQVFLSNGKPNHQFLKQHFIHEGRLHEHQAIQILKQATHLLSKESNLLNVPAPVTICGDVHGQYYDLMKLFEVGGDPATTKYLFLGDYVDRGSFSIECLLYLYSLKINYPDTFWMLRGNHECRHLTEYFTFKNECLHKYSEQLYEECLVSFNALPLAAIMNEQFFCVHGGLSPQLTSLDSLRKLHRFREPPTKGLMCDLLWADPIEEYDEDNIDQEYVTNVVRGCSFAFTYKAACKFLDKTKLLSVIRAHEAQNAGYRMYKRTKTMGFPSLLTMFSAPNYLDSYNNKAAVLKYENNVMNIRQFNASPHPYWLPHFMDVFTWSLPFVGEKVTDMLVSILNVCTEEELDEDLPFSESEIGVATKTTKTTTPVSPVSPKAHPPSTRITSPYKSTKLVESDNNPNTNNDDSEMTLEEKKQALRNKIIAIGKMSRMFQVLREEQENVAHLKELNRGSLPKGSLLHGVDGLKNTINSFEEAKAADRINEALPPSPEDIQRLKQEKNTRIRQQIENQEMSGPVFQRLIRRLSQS
Glycogen synthase kinase-3 alpha, sequence (P49840 whole entry): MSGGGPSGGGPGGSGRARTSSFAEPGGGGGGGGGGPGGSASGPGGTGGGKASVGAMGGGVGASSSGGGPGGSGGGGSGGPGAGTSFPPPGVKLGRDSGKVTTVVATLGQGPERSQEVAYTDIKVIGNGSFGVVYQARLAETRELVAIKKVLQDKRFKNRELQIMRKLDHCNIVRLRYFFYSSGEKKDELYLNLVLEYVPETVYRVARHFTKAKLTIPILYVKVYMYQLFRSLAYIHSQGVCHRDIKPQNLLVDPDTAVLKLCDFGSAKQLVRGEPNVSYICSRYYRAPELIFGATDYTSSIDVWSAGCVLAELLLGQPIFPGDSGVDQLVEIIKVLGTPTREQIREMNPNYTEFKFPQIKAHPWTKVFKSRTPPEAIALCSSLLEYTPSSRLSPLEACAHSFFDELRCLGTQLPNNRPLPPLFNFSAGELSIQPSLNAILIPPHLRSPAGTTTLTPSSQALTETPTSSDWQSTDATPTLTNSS
Cyclin-dependent kinase 5/CDK5 activator 1, sequence (Q00535 whole entry, the tested form may be a part): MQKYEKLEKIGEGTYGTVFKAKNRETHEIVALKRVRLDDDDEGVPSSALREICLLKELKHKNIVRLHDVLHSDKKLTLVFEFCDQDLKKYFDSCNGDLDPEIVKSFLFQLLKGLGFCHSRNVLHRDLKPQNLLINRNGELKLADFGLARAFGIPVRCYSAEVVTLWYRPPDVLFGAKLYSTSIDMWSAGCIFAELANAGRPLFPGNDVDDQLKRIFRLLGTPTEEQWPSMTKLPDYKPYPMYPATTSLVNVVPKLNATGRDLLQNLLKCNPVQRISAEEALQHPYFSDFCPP
Cyclin-dependent kinase 5/CDK5 activator 1, sequence (Q15078 whole entry, further chain, the tested form may be a part): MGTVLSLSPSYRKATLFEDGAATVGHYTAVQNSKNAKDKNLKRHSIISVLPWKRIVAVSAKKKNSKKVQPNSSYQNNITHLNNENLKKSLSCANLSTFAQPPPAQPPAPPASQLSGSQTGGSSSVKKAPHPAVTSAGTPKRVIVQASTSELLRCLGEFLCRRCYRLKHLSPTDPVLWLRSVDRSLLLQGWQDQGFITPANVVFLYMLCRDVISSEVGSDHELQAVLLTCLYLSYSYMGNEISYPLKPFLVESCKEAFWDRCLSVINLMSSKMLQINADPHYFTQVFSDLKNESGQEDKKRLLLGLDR
Luciferin 4-monooxygenase, sequence (Q27757 whole entry): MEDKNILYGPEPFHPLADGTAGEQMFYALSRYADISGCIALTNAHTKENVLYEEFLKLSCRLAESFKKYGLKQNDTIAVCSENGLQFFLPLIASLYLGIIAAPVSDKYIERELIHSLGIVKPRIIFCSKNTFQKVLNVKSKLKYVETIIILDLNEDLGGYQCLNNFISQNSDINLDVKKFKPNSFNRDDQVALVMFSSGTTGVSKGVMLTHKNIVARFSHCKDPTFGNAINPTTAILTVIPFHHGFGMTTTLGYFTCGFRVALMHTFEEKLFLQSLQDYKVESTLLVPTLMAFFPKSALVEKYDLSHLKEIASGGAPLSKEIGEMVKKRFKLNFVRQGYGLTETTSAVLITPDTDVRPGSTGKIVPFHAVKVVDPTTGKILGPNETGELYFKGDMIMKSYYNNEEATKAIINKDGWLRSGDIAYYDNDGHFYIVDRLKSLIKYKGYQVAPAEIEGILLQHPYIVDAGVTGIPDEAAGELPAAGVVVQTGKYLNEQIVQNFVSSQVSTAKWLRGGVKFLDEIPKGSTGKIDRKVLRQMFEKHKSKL
ATP-dependent molecular chaperone HSP82, sequence (C4YTQ8 whole entry): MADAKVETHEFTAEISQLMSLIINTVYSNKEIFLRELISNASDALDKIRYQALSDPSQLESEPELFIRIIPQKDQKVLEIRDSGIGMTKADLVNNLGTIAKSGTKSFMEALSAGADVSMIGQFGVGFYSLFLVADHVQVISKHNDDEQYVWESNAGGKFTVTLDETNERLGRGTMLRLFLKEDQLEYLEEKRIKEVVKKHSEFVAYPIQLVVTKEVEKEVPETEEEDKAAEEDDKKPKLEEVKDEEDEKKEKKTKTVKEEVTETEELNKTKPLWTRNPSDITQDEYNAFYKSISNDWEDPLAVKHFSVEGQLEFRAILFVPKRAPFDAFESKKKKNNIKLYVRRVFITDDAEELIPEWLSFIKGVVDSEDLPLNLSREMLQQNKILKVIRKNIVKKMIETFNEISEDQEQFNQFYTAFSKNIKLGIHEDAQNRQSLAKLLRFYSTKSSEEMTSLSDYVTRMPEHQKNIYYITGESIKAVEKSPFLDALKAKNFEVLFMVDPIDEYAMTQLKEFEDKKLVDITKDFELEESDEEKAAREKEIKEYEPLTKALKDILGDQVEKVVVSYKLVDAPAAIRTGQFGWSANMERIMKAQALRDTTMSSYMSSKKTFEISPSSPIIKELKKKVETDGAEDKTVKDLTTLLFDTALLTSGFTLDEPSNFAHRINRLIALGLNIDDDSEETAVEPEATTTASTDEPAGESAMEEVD
Glycogen synthase kinase-3 beta, sequence (P49841 whole entry): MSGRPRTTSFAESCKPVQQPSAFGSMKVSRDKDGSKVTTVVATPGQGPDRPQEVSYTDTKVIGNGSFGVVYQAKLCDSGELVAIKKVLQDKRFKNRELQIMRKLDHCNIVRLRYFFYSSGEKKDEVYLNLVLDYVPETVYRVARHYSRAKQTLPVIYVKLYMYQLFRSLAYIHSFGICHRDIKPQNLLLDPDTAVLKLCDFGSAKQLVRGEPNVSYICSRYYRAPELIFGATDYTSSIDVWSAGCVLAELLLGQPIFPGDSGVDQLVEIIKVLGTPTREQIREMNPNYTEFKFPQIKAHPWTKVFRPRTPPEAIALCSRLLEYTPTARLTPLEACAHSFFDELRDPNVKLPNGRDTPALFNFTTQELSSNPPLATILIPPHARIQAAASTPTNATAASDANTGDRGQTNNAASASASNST

One may read the AC50 as the concentration at which the activity in the assay is half-maximal. Regarding `Cc1ccc(S(=O)(=O)N=C(N)Nc2nc(C)c3cc(C)ccc3n2)cc1`, in experiment [1], the AC50 is 14.2 µM (active).
For `O=C(C1CCCC1)N1CCN(c2ccnc3cc(Cl)ccc23)CC1`, the AC50 was 1.71 µM (active) in experiment [2], 0.566 µM (active) in [3], 2.08 µM (active) in experiment [4] and 2.01 µM (active) in experiment [5].
In the case of `CC12CCC(=O)C=C1CCC1C2C(O)CC2(C)C1CCC2(O)C(=O)CO` (configuration not stated), the AC50 in experiment [6] was > 52 µM (inactive).
`COc1cc(/C=N/Nc2ccc([N+](=O)[O-])cn2)cc(OC)c1O`: the AC50 was 0.367 µM (active) in experiment [7], 0.095 µM (active) in experiment [8] and 1.55 µM (active) in experiment [9].
For orientation: IC50 means the point on the concentration scale where inhibition reaches its midpoint. As a reminder, the EC50 is the concentration that produces a half-maximal response. As for `COc1ccc(OC)c(/C=C/c2nc3ccccc3nc2O)c1`, the IC50 in [10] is 28.4 µM (inactive); in [12] it was 8.5 µM (active). The EC50 in experiment [11] and in experiment [13] was > 99 µM (inactive) in each case.
Take `O=[N+]([O-])c1c(O)nc2ccc(Cl)cc2c1-c1ccccc1`: the IC50 was > 66.2 µM (inactive) in experiment [14]; > 49.8 µM (inactive) in [15]; 0.915 µM (active) in experiment [16]; > 49.8 µM (inactive) in [17]; > 88.8 µM (inactive) in experiment [18]; 1.5 µM (active) in experiment [19].
With `O=Nc1c(-c2cccc([N+](=O)[O-])c2)nc2ncccn12`, the EC50 was > 160 µM (inconclusive) in [20], 1.11 µM (active) in experiment [21], 0.828 µM (active) in [23] and 0.826 µM (active) in experiment [24]. The half-maximal inhibitory concentration (IC50) in [22] is 32.5 µM (active).
Turning to `CCOCCCNC(=O)CSCc1nc(-c2ccc(OCC)cc2)oc1C`, the IC50 in experiment [25] was 51.9 µM (inactive); in [26], > 80 µM (inactive); in experiment [27], > 80 µM (inactive).
